One may read the Solubility as the dissolved amount per volume that the medium holds.

Here are results for 5 molecules from US20260224563A1, “CRYSTALLINE FORMS OF 6-(3-((5-CHLORO-2-METHOXYPYRIDINE)-3-SULFONAMIDO)-2,6-DIFLUOROPHENYL)-N-METHYLIMIDAZO[1,5-A]PYRAZINE-1-CARBOXAMIDE AND METHODS FOR USING THE SAME” (HIBERCELL, INC., priority 2023, published 2026).

Format in all cases: physicochemical
The nature of series [1]: Water activity study of the crystalline potassium salt forms (acetone/water suspension, XRPD). The settings on record: water/acetone. On the procedure: A water activity study of the potassium salt forms was conducted in two groups: (i) Form I and Form III of the potassium salt, and (ii) Form II and Form III of the potassium salt.
Each suspension was shaken at 700 rpm in a shaker at 25° C., 35° C., 45° C., and 50° C., and the sample was analyzed by XRPD.

Series [2] in a line: Solubility testing in organic solvents and water (visual, room temperature).
Series [3] is described as follows: Solubility in simulated biological fluid (FaSSGF and FaSSIF) at 37° C., HPLC; pH of filtrate, XRPD of filter cake. The conditions noted are these: for pH (24 h): filtrate; for XRPD (filter cake, crystal form): up to 24 hours; for XRPD: filter cake. On the procedure: Approximately between 15 mg and 24 mg of sample was suspended in 5 mL or 8 mL of FaSSGF or FaSSIF, respectively. The resulting suspension was shaken at 700 rpm with a QQMSC-100 shaker at 37° C. The suspension was sampled and filtered at certain time intervals, which was achieved by sampling 1000 μL of each suspension which was then filtered and diluted, diluting the resulting filtrate for HPLC analysis to assess solubility. The pH of the filtrate was measured, and the filter cake was analyzed by XRPD.
Approximately 15 mg to 24 mg of sample was suspended in 5 or 8 mL of FaSSGF or FaSSIF, respectively. The resulting suspension was shaken at 700 rpm with a QQMSC-100 shaker at 37° C. The suspension was sampled and filtered at certain time intervals, which was achieved by sampling 1000 μL of each suspension was filtered and diluted, diluting the resulting filtrate for HPLC analysis to assess solubility. The pH of the filtrate was measured, and the filter cake was analyzed by XRPD.
Approximately 15 mg to 24 mg of sample was suspended in 5 or 8 mL of FaSSGF or FaSSIF, respectively. The resulting suspension was shaken at 700 rpm with a QQMSC-100 shaker at 37° C. The suspension was sampled and filtered in certain time interval, which was achieved by sampling 1000 μL of each suspension was filtered and diluted, diluting the resulting filtrate for HPLC analysis to assess solubility. The pH of the filtrate was measured, and the filter cake was analyzed by XRPD.

The nature of series [4]: Dynamic vapor sorption (DVS). The conditions noted are these: for DVS weight gain: 0 to 90% relative humidity, 25° C. On the procedure:
Moisture sorption/desorption data was collected on a Vsorp Dynamic Moisture Sorption Analyzer (ProUmid GmbH & Co. KG, Germany). The sample was placed into a tared sample chamber and automatically weighed.
• Equilibrium Condition: 0.01%/40 min • Time between weighing cycles: 10 minutes • Minimum time per climate cycle: 50 minutes • Maximum time per climate cycle: 2.0 hour • Balanced condition: 25° C. at 60% […] for 4 hours • Sample temperature: 25° C. • Adsorption: 70, 80, 90 • Desorption: 80, 70, 60, 50, 40, 30, 20, 10, 0 • Adsorption: 10, 20, 30, 40, 50, 60

A short description of series [5]: Solid-state stability (60° C./closed and 40° C./75% relative humidity open, up to seven days; HPLC purity, XRPD). On the procedure: HPLC method for stability and solubility testing is listed below.
• Column: Ascentis® Express C18 4.6*150 mm*2.7 μm • Mobile Phase A: 0.05% trifluoroacetic acid in water • Mobile Phase B: Methanol • Gradient (T/B %): 0/10, 10/100, 13.5/10, 15/10 • Column Temperature: 40° C. • Detector: DAD; 220 nm • Flow rate: 1.0 mL/min • Injection volume: 1 μL • Concentration: 1 mg/mL • Run time: 15 minutes • Diluent: Methanol:Water 9:1 (v/v)
The solid-state stability of Form III of the potassium salt was performed using the following protocol: • (1) A sample of Form III of the potassium salt was placed at 60° C./closed and 40° C./75% relative humidity (open) conditions for up to seven days. At the onset of the test (day 0) and day 7 of the test, the sample was dissolved in a diluent to prepare a 1 mg/mL solution for HPLC purity analysis. The solid sample was analyzed by XRPD to assess the crystal form of each solid at day 7. […] The XRPD data confirmed the physicochemical stability of Form III of the potassium salt under both closed and open conditions. […]

The mark [6] stands for this setting: listed as Form II of the free acid.

Values after ≈ are worked out from the molar mass of the structure shown. Read-outs that look alike come from different tables or passages of the source.

`CNC(=O)c1ncn2cc(-c3c(F)ccc([N-]S(=O)(=O)c4cc(Cl)cnc4OC)c3F)ncc12.[K+]` [Forms I and III of the Potassium Salt]: the “Crystalline form by XRPD” value in series [1] (0% water without molecular sieves, KF 0.189 wt. %, 25° C.) was “Form III”; in series [1] (0% water without molecular sieves, KF 0.189 wt. %, 35° C.) it was “Form III”; in series [1] (0% water without molecular sieves, KF 0.189 wt. %, 45° C.), “Form III”; in series [1] (0% water without molecular sieves, KF 0.189 wt. %, 50° C.), “Form III”; in series [1] (10 V% water, KF 14.9 wt. %, 25° C.), “Form III”; in series [1] (10 V% water, KF 14.9 wt. %, 35° C.), “Form III”. Also, the “Crystalline form by XRPD” value in series [1] (10 V% water, KF 14.9 wt. %, 45° C.) is listed as “Form III”; in series [1] (10 V% water, KF 14.9 wt. %, 50° C.) it was “Form III”; in series [1] (25 V% water, KF 34.5 wt. %, 25° C.), “Form III”; in series [1] (25 V% water, KF 34.5 wt. %, 35° C.), “Form III”; in series [1] (25 V% water, KF 34.5 wt. %, 45° C.), “Form III”; in series [1] (25 V% water, KF 34.5 wt. %, 50° C.), “Form III”. Moreover, the “Crystalline form by XRPD” value in series [1] (50 V% water, KF 60.1 wt. %, 25° C.) is given as “Form III”; in series [1] (50 V% water, KF 60.1 wt. %, 35° C.), “Form III”; in series [1] (50 V% water, KF 60.1 wt. %, 45° C.) it was “Form III”; in series [1] (50 V% water, KF 60.1 wt. %, 50° C.), “Form III”; in series [1] (75 V% water, KF 90.5 wt. %, 25° C.) it was “Form III”; in series [1] (75 V% water, KF 90.5 wt. %, 35° C.), “Form III”. Further, the “Crystalline form by XRPD” value in series [1] (75 V% water, KF 90.5 wt. %, 45° C.) is recorded as “Form III”; in series [1] (75 V% water, KF 90.5 wt. %, 50° C.), “Form III”.

Take `CNC(=O)c1ncn2cc(-c3c(F)ccc([N-]S(=O)(=O)c4cc(Cl)cnc4OC)c3F)ncc12.[K+]` [Forms II and III of the Potassium Salt]: in series [1] (0% water without molecular sieves, KF 0.189 wt. %, 50° C., 20 h), the “Crystalline form by XRPD” value is reported as “Form I^20 h”.

Consider `CNC(=O)c1ncn2cc(-c3c(F)ccc(NS(=O)(=O)c4cc(Cl)cnc4OC)c3F)ncc12` [Free acid Form I, 6-(3-((5-chloro-2-methoxypyridine)-3-sulfonamido)-2,6-difluorophenyl)-N-methylimidazo[1,5-a]pyrazine-1-carboxamide], for which the Solubility in series [2] (Acetone, listed as Form I of the Free Acid) is roughly 10000 µg/mL (≈ 19700 µM); in series [2] (DCM, listed as Form I of the Free Acid) it was roughly 8000 µg/mL (≈ 15700 µM); in series [2] (DMSO, listed as Form I of the Free Acid), greater than 230000 µg/mL; in series [2] (EtOAc, listed as Form I of the Free Acid) it was roughly 2000 µg/mL (≈ 3930 µM); in series [2] (EtOH, listed as Form I of the Free Acid), roughly 1000 µg/mL (≈ 1970 µM); in series [2] (H2O (water), listed as Form I of the Free Acid), less than 100 µg/mL. Moreover, the Solubility in series [2] (Heptane) was less than 100 µg/mL; in series [2] (IPA, listed as Form I of the Free Acid), roughly 400 µg/mL (≈ 786 µM); in series [2] (IPAc, listed as Form I of the Free Acid) it was roughly 800 µg/mL (≈ 1570 µM); in series [2] (MEK, listed as Form I of the Free Acid), roughly 6000 µg/mL (≈ 11800 µM); in series [2] (MTBE) it was less than 100 µg/mL; in series [2] (MeCN, listed as Form I of the Free Acid), roughly 5000 µg/mL (≈ 9830 µM). For the same molecule, the Solubility is roughly 700 µg/mL (≈ 1380 µM) in series [2] (MeOH, listed as Form I of the Free Acid); roughly 700 µg/mL (≈ 1380 µM) in series [2] (NBA, 24 °C, organic solvent or mixture, thermodynamic from solid, NBA, read-out: Solubility); roughly 35000 µg/mL (≈ 68800 µM) in series [2] (THF, listed as Form I of the Free Acid); less than 100 µg/mL in series [2] (toluene, 24 °C, organic solvent or mixture, thermodynamic from solid, Toluene, read-out: Solubility).

With `CNC(=O)c1ncn2cc(-c3c(F)ccc(NS(=O)(=O)c4cc(Cl)cnc4OC)c3F)ncc12` [Free acid Form II, 6-(3-((5-chloro-2-methoxypyridine)-3-sulfonamido)-2,6-difluorophenyl)-N-methylimidazo[1,5-a]pyrazine-1-carboxamide], the “pH (0 h)” value is recorded as 1.60 in series [3] (FaSSGF, 37° C.) and 6.50 in series [3] (FaSSIF, 37° C.). The Concentration in series [3] (FaSSGF, 37° C., 0.5 h) was 200 ng/mL; in series [3] (FaSSGF, 37° C., 2.0 h), 300 ng/mL; in series [3] (FaSSGF, 37° C., 24 h), 1500 ng/mL; in series [3] (FaSSIF, 37° C., 0.25 h) it was 3000 ng/mL; in series [3] (FaSSIF, 37° C., 0.5 h), 1400 ng/mL; in series [3] (FaSSIF, 37° C., 0.75 h) it was 1300 ng/mL. Moreover, the Concentration in series [3] (FaSSIF, 37° C., 1.0 h) is 1300 ng/mL; in series [3] (FaSSIF, 37° C., 2.0 h), 1600 ng/mL; in series [3] (FaSSIF, 37° C., 24 h), 4000 ng/mL. Moreover, the “pH (24 h)” value is listed as 1.57 in series [3] (FaSSGF, 37° C.) and 6.49 in series [3] (FaSSIF, 37° C.). For the same molecule, the “XRPD (filter cake, crystal form)” value in series [3] (FaSSGF, 37° C.) is given as “Unchanged”; in series [3] (FaSSIF, 37° C.), “Unchanged”. The DVS weight gain in series [4] is on record as roughly 0%; in series [4] (setting [6]), “almost no weight gain”. Also, the “Hygroscopicity (DVS)” value in series [4] (class by weight gain to 80% relative humidity) is reported as “Non-hygroscopic”; in series [4] (relative to the class slightly hygroscopic), “below slightly hygroscopic”. The “XRPD pattern after DVS testing” value in series [4] (setting [6]) is listed as “No changes”. In addition, the “Purity (Area %) 220 nm” value in series [5] (0 day) was 99.96 Area %; in series [5] (40° C./75% RH (open), 7 days), 99.94 Area %; in series [5] (60° C./closed, 7 days), 99.94 Area %. In addition, the “physical and chemical stability” value in series [5] (both closed (60° C.) and open (40° C./75% RH) conditions for seven days) was “maintained physical and chemical stability”.

As for `CNC(=O)c1ncn2cc(-c3c(F)ccc([N-]S(=O)(=O)c4cc(Cl)cnc4OC)c3F)ncc12.[Na+]` [Na salt Form III], the results for the “pH (0 h)” value in series [3] (FaSSGF) and in series [3] (FaSSIF) were 1.60 and 6.50, respectively. Moreover, the Concentration in series [3] (FaSSGF, 37° C., 0.5 h) is 45900 ng/mL; in series [3] (FaSSGF, 37° C., 2.0 h), 4400 ng/mL; in series [3] (FaSSGF, 37° C., 24 h) it was 4100 ng/mL; in series [3] (FaSSIF, 37° C., 0.25 h), 176000 ng/mL; in series [3] (FaSSIF, 37° C., 0.5 h), 175000 ng/mL; in series [3] (FaSSIF, 37° C., 0.75 h), 169000 ng/mL. The Concentration in series [3] (FaSSIF, 37° C., 1.0 h) was 170000 ng/mL; in series [3] (FaSSIF, 37° C., 2.0 h), 13200 ng/mL; in series [3] (FaSSIF, 37° C., 24 h) it was 9900 ng/mL. Moreover, the XRPD entry in series [3] (FaSSGF) and in series [3] (FaSSIF) was “Changed” each time. For the same molecule, the results for the “pH (24 h)” value in series [3] (FaSSGF) and in series [3] (FaSSIF) were 1.68 and 6.86, respectively.
